From patent US7026334B1, “Thiazolidine compounds and pharmaceutical compositions exhibiting thrombopoietin receptor agonism” (Shionogi & Co., Ltd., priority 1999, dated 2006)
pEC50: −log10 of the molar value.

Target: T1, human TPO receptor (hTPOR) (Homo sapiens, UniProt P40238)
T1 construct: expressed in transfected cells; host or cells: BaF-BO3 (murine IL-3 dependent pro-B cell line), giving BaF/hTPOR
T1 sequence (P40238 26-635): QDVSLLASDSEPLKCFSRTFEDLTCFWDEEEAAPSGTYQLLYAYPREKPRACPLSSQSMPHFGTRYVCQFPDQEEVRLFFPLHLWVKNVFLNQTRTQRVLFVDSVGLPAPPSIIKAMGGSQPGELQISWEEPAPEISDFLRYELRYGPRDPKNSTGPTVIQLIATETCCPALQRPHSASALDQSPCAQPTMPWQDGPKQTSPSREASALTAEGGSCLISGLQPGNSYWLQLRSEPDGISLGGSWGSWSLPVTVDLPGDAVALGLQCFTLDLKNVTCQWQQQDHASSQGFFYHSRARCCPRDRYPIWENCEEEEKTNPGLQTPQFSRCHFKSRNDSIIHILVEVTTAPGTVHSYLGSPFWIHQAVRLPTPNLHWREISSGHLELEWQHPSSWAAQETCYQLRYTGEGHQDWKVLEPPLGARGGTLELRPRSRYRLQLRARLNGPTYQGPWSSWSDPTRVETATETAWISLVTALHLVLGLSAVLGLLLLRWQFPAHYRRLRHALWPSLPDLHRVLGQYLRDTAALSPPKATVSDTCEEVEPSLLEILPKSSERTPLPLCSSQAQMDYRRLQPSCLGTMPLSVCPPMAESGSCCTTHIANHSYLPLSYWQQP
Test: Proliferation of TPO dependent BaF/hTPOR cells (thrombopoietic activity, WST-1)
Assay type: cell-based
Conditions: 20 hours + 4 hours WST-1, absorbance at 450 nm, ED50 = half concentration of the concentration showing the maximum thrombopoietic activity
From the text: The TPO dependent BaF/hTPOR cell line which was established by introducing human TPO receptor (hTPOR) into BaF-BO3 cells according to Collins et al (J. Cell. Physiol., 137:293-298 (1988)) was used to test the thrombopoietic activity of the present compound (B-17). The DNA sequences and encoded peptide sequences for human hTPOR have been described by Vigon et al (Proc. Natl. Acad. Sci. USA, 89:5640-5644 (1992)). […] BAF/hTPOR cells were maintained in RPMI medium and WEHI-3B conditioned medium as a source of murine interleukin-3 (IL-3). These cells were washed and resuspended in RPMI medium without a source of murine IL-3 and seeded into each well of 96-well microtiter plates at a density of […] cells per well in the absence or presence of various concentration of hTPO or the present compound. After incubation at 37° C. for 20 hours in the 5% CO2 incubator, 10% WST-1 reagent (Takara Biomedicals, Japan) was added to each wells and the cells were further incubated for 4 hours. Table 24 exemplifies the ED50 for tested compounds of the present invention, wherein the ED50 is the half concentration of the concentration showing the maximum thrombopoietic activity

| Compound | pEC50 |
| --- | --- |
| O=C1NC(=S)S/C1=C\c1ccc(C(=O)Nc2nc(-c3ccc(Cl)c(Cl)c3)cs2)cc1 [Compound A-1] | 7.92 |
| O=C1NC(=S)SC1=Cc1ccc(C(=O)Nc2nc(-c3ccccc3)cs2)cc1 [Compound A-2] | 7.24 |
| O=C1NC(=S)SC1=Cc1ccc(C(=O)Nc2nc(-c3ccc(F)cc3)cs2)cc1 [Compound A-3] | 7.77 |
| O=C1NC(=S)SC1=Cc1ccc(C(=O)Nc2nc(-c3ccc(Br)cc3)cs2)cc1 [Compound A-4] | 7.44 |
| O=C1NC(=S)SC1=Cc1ccc(C(=O)Nc2nc(-c3ccc(Cl)cc3)cs2)cc1 [Compound A-5] | 7.66 |
| Cc1ccc(-c2csc(NC(=O)c3ccc(C=C4SC(=S)NC4=O)cc3)n2)cc1 [Compound A-6] | 7.35 |
| O=C1NC(=S)SC1=Cc1ccc(C(=O)Nc2nc(-c3ccc(-c4ccccc4)cc3)cs2)cc1 [Compound A-7] | 7.22 |
| CC(C)(C)c1ccc(-c2csc(NC(=O)c3ccc(/C=C4\SC(=S)NC4=O)cc3)n2)cc1 [Compound A-11] | 7.51 |
| COC(=O)c1ccc(-c2csc(NC(=O)c3ccc(/C=C4\SC(=S)NC4=O)cc3)n2)cc1 [Compound A-12] | 7.96 |
| O=C1NC(=S)S/C1=C\c1ccc(C(=O)Nc2nc(-c3ccc([N+](=O)[O-])cc3)cs2)cc1 [Compound A-14] | 7.82 |
| O=C1NC(=S)S/C1=C\c1ccc(C(=O)Nc2nc(-c3ccc(Cl)s3)cs2)cc1 [Compound A-15] | 7.59 |
| O=C1NC(=S)S/C1=C\c1ccc(C(=O)Nc2nc(-c3cccs3)cs2)cc1 [Compound A-16] | 7.31 |
| O=C1NC(=S)S/C1=C\c1ccc(C(=O)Nc2nc(-c3ccc(F)c(F)c3)cs2)cc1 [Compound A-20] | 7.54 |
| O=C1NC(=S)S/C1=C\c1ccc(C(=O)Nc2nc(-c3ccc(Br)s3)cs2)cc1 [Compound A-21] | 7.39 |
| CC(C)OC(=O)c1ccc(-c2csc(NC(=O)c3ccc(/C=C4\SC(=S)NC4=O)cc3)n2)cc1 [Compound A-25] | 7.00 |
| CCCCOC(=O)c1ccc(-c2csc(NC(=O)c3ccc(/C=C4\SC(=S)NC4=O)cc3)n2)cc1 [Compound A-26] | 7.14 |
| CCOC(=O)c1sc(NC(=O)c2ccc(/C=C3\SC(=S)NC3=O)cc2)nc1-c1ccccc1 [Compound A-32] | 7.11 |
| Cc1sc(NC(=O)c2ccc(/C=C3\SC(=S)NC3=O)cc2)nc1-c1ccc(Cl)cc1 [Compound A-37] | 7.57 |
| CCc1sc(NC(=O)c2ccc(/C=C3\SC(=S)NC3=O)cc2)nc1-c1ccccc1 [Compound A-38] | 7.33 |
| COC(=O)c1sc(NC(=O)c2ccc(/C=C3\SC(=S)NC3=O)cc2)nc1-c1ccc(F)cc1 [Compound A-42] | 7.14 |
| O=C1NC(=S)S/C1=C\c1ccc(C(=O)Nc2nc(-c3ccc(F)cc3)c(CCCl)s2)cc1 [Compound A-43] | 7.14 |
| O=C1NC(=S)S/C1=C\c1ccc(C(=O)Nc2nc3c(s2)CCc2ccccc2-3)cc1 [Compound A-49] | 7.46 |
| O=C1NC(=S)S/C1=C\c1ccc(C(=O)Nc2nc3c(s2)CCCc2ccccc2-3)cc1 [Compound A-50] | 7.59 |
| O=C1NC(=S)S/C1=C\c1ccc(C(=O)Nc2nc(-c3cccc(C(F)(F)F)c3)cs2)cc1 [Compound A-53] | 7.64 |

| Compound | pEC50 |
| --- | --- |
| Cc1cc(Br)sc1-c1csc(NC(=O)c2ccc(/C=C3\SC(=S)NC3=O)cc2)n1 [Compound A-56] | 7.02 |
| O=C1NC(=S)S/C1=C\c1ccc(C(=O)Nc2nc3c(s2)CSc2ccccc2-3)cc1 [Compound A-59] | 7.08 |
| O=C1NC(=S)S/C1=C\c1ccc(C(=O)Nc2nc(-c3ccc(C(F)(F)F)cc3)cs2)cc1 [Compound A-61] | 7.16 |
| O=C1NC(=S)S/C1=C\c1ccc(C(=O)Nc2nc(-c3cccc(OC(F)(F)F)c3)cs2)cc1 [Compound A-63] | 7.80 |
| O=C1NC(=S)S/C1=C\c1ccc(C(=O)Nc2nc(-c3cccc(F)c3)cs2)cc1 [Compound A-64] | 7.33 |
| O=C1NC(=S)S/C1=C\c1ccc(C(=O)Nc2nc(-c3ccccc3F)cs2)cc1 [Compound A-67] | 7.30 |
| O=C1NC(=S)S/C1=C\c1ccc(C(=O)Nc2nc(-c3ccc(F)cc3F)cs2)cc1 [Compound A-70] | 7.70 |
| O=C1NC(=S)S/C1=C\c1ccc(C(=O)Nc2nc(-c3cc(F)c(F)cc3F)cs2)cc1 [Compound A-71] | 7.10 |
| O=C1NC(=S)S/C1=C\c1ccc(C(=O)Nc2nc(-c3cccc(Br)c3)cs2)cc1 [Compound A-72] | 7.46 |
| O=C1NC(=S)S/C1=C\c1ccc(C(=O)Nc2nc(-c3ccc(I)cc3)cs2)cc1 [Compound A-73] | 7.15 |
| O=C1NC(=O)C(=Cc2ccc(C(=O)Nc3nc(-c4ccccc4)cs3)cc2)S1 [Compound B-1] | 7.15 |
| O=C1NC(=O)C(=Cc2ccc(C(=O)Nc3nc(-c4ccc(F)cc4)cs3)cc2)S1 [Compound B-2] | 7.96 |
| O=C1NC(=O)C(=Cc2ccc(C(=O)Nc3nc(-c4ccc(Br)cc4)cs3)cc2)S1 [Compound B-3] | 7.33 |
| O=C1NC(=O)C(=Cc2ccc(C(=O)Nc3nc(-c4ccc(Cl)cc4)cs3)cc2)S1 [Compound B-4] | 7.43 |
| Cc1ccc(-c2csc(NC(=O)c3ccc(C=C4SC(=O)NC4=O)cc3)n2)cc1 [Compound B-5] | 7.33 |
| O=C1NC(=O)C(=Cc2ccc(C(=O)Nc3nc(-c4ccc(-c5ccccc5)cc4)cs3)cc2)S1 [Compound B-6] | 7.14 |
| O=C1NC(=O)/C(=C/c2ccc(C(=O)Nc3nc(-c4ccc(Cl)s4)cs3)cc2)S1 [Compound B-14] | 7.64 |
| O=C1NC(=O)/C(=C/c2ccc(C(=O)Nc3nc(-c4cccs4)cs3)cc2)S1 [Compound B-15] | 7.11 |
| O=C1NC(=O)/C(=C/c2ccc(C(=O)Nc3nc(-c4ccc(Cl)c(Cl)c4)cs3)cc2)S1 [Compound B-16] | 7.70 |
| O=C1NC(=O)/C(=C/c2ccc(C(=O)Nc3nc(-c4ccc(F)c(F)c4)cs3)cc2)S1 [Compound B-18] | 7.80 |
| O=C1NC(=O)/C(=C/c2ccc(C(=O)Nc3nc4c(s3)CCc3ccccc3-4)cc2)S1 [Compound B-21] | 7.08 |
| O=C1NC(=O)C(=Cc2ccc(C(=O)Nc3nc(-c4ccc(Cl)c(Cl)c4)cs3)cc2)O1 [Compound C-1] | 7.17 |
| O=C1NC(=O)C(=Cc2ccc(C(=O)Nc3nc(-c4ccc(Cl)c(Cl)c4)cs3)s2)S1 [Compound E-2] | 7.21 |

Tested on: BaF-BO3 cells
Test: Growth of the parental cell line BaF-BO3 not expressing TPOR
Assay type: cell-based
Conditions: FIG. 3

| Compound | proliferation of parental BaF cells bearing no TPOR |
| --- | --- |
| TPO: Thrombopoietin, polypeptide cytokine composed of 332 amino acids; Human TPO (hTPO) purchased from R&D Systems | dose not have any ability to support proliferation |
